Experimental data: a compilation of properties of binary mixtures (doi:10.1007/s10953-009-9410-7)

Experiment: xn = mol fraction of the nth substance listed
Conditions: 101 kPa

CCCC[n+]1ccn(C)c1.N#C[S-] + CCCCO
viscosity [mPa·s]
Conditions | 298.15 K | 308.15 K | 318.15 K | 328.15 K | 338.15 K | 348.15 K
x2 = 0 | 51.7 | 34.9 | 24.2 | 16.7 | 12.7 | 9.98
x2 = 0.0911 | 39.2 | 26.5 | – | 14.2 | 11 | 8.82
x2 = 0.3317 | 21.2 | 15.2 | 11.5 | 8.92 | 7.12 | –
x2 = 0.4552 | 15.3 | 11.3 | 8.7 | – | 5.51 | 4.51
x2 = 0.5596 | – | 8.44 | – | 5.16 | – | 3.5
x2 = 0.6222 | – | 7.04 | – | 4.39 | – | 3.02
x2 = 0.6834 | 7.53 | – | – | – | 3.08 | 2.59
x2 = 0.79 | – | 4.12 | 3.3 | 2.69 | 2.24 | 1.89
x2 = 0.8487 | 4.37 | 3.43 | 2.75 | 2.25 | 1.87 | 1.58
x2 = 0.8975 | 3.74 | 2.94 | 2.36 | 1.92 | 1.6 | –
x2 = 0.9738 | – | 2.27 | – | 1.46 | 1.2 | –

CCCCCCO + CCCC[n+]1ccn(C)c1.N#C[S-]
x1 = 1
Conditions | viscosity [mPa·s]
298.15 K | 4.48
318.15 K | 2.55
328.15 K | 1.98
348.15 K | 1.28

CCCCCO + CCCC[n+]1ccn(C)c1.N#C[S-]
x1 = 1
Conditions | viscosity [mPa·s]
308.15 K | 2.57
318.15 K | 2
328.15 K | 1.58
338.15 K | 1.27
348.15 K | 1.03

CCCCO + CCCC[n+]1ccn(C)c1.N#C[S-]
x1 = 1
Conditions | viscosity [mPa·s]
298.15 K | 2.52
308.15 K | 1.97
318.15 K | 1.56
338.15 K | 1.02
